From patent publication US9708314B2, “Heterocyclic amide compound” (NISSAN CHEMICAL INDUSTRIES, LTD., priority 2013, dated 2017)

Tests used:
Type in all cases: in vivo
Scirpus juncoides = assay: Test Example 1: herbicidal activity, application before weed generation in submerged conditions; conditions: Seventeenth Table; for B: Scirpus juncoides (herbicidal effect grade): Application herbicide amount 320 g/ha
How it was run: (§1)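 Submerged pot test: alluvial soil, 4 cm water, seeds sown mixed, 2.5-leaf rice transplanted; emulsion in water applied to surface day of sowing, dose g/ha; greenhouse 25–30° C.; 3 wk; 0–5 rating.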

Monochoria vaginalis = assay: as above; conditions: Seventeenth Table; for C: Monochoria vaginalis (herbicidal effect grade): Application herbicide amount 320 g/ha
How it was run: as §1

[1] = tested on: Echinochloa oryzacola Vasing.; assay: as above; conditions: Seventeenth Table; for A: Echinochloa oryzicola Vasing. (herbicidal effect grade): Application herbicide amount 320 g/ha
How it was run: as §1

Stellaria media = assay: Test Example 4: herbicidal effect by application to foliage (diluvial soil, plastic box); conditions: 320 g/ha; for herbicidal effect, P (Stellaria media): application to foliage
How it was run: (§2)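 Read-out is a 0–5 visual grade of herbicidal ratio (5: ≥90%, almost withered; 0: ≤5%) taken three weeks after treatment. Compound was applied as a diluted emulsion to stem and leaf parts of 14-day greenhouse-grown plants (25° C. to 30° C.) at rates expressed as g/ha.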

Digitaria ciliaris = assay: as above; conditions: 320 g/ha; for herbicidal effect, F (Digitaria ciliaris): application to foliage
How it was run: as §2

Amaranthus retroflexus = assay: as above; conditions: 320 g/ha; for herbicidal effect, N (Amaranthus retroflexus): application to foliage
How it was run: as §2

[2] = tested on: Echinochloa crus-galli var. crus-galli; assay: as above; conditions: 320 g/ha; for herbicidal effect, H (Echinochloa crus-galli var. crus-galli): application to foliage
How it was run: as §2

Veronica persica = assay: as above; conditions: 320 g/ha; for herbicidal effect, R (Veronica persica): application to foliage
How it was run: as §2

Abutilon theophrasti = assay: as above; conditions: 320 g/ha; for herbicidal effect, M (Abutilon theophrasti): application to foliage
How it was run: as §2

Avena fatua = assay: as above; conditions: 320 g/ha; for herbicidal effect, I (Avena fatua): application to foliage
How it was run: as §2

Lolium multiflorum Lam. = assay: as above; conditions: 320 g/ha; for herbicidal effect, K (Lolium multiflorum Lam.): application to foliage
How it was run: as §2

Alopecurus myosuroides = assay: as above; conditions: 320 g/ha; for herbicidal effect, J (Alopecurus myosuroides): application to foliage
How it was run: as §2

Galium spurium = assay: as above; conditions: 320 g/ha; for herbicidal effect, Q (Galium spurium): application to foliage
How it was run: as §2

Setaria viridis = assay: as above; conditions: 320 g/ha; for herbicidal effect, G (Setaria viridis): application to foliage
How it was run: as §2

Apera spica-venti. = assay: as above; conditions: 320 g/ha; for herbicidal effect, L (Apera spica-venti.): application to foliage
How it was run: as §2

Chenopodium album = assay: as above; conditions: 320 g/ha; for herbicidal effect, O (Chenopodium album): application to foliage
How it was run: as §2

[3] = tested on: Beta vulgaris ssp. vulgaris; assay: Test Example 4: effect on crop by application to foliage (diluvial soil, plastic box); conditions: 320 g/ha; for effect on crop, f (Beta vulgaris ssp. vulgaris): application to foliage
How it was run: as §2

[4] = tested on: directly sowed Oryza sativa; assay: as above; conditions: 320 g/ha; for effect on crop, d (directly sowed Oryza sativa): application to foliage
How it was run: as §2

Glycine max = assay: as above; conditions: 320 g/ha; for effect on crop, c (Glycine max): application to foliage
How it was run: as §2

Triticum aestivum = assay: as above; conditions: 320 g/ha; for effect on crop, e (Triticum aestivum): application to foliage
How it was run: as §2

Zea mays = assay: as above; conditions: 320 g/ha; for effect on crop, b (Zea mays): application to foliage
How it was run: as §2

Brassica campestris L. = assay: as above; conditions: 320 g/ha; for effect on crop, g (Brassica campestris L.): application to foliage
How it was run: as §2

[5] = application herbicide amount 320 g/ha

CC(C)c1nc2c(C(=O)Nc3nnnn3C)ccc(C(F)(F)F)n2n1 [7-002]
B (Scirpus juncoides) herbicidal ratio grade (Scirpus juncoides; [5]): 3 (Herbicidal ratio of 40% or more and less than 70%)
C (Monochoria vaginalis) herbicidal ratio grade (Monochoria vaginalis; [5]): 4 (Herbicidal ratio of 70% or more and less than 90%)
A (Echinochloa oryzicola Vasing.) herbicidal ratio grade [1, 5]: 3 (Herbicidal ratio of 40% or more and less than 70%)
herbicidal effect, P (Stellaria media) (Stellaria media): 4 (Herbicidal ratio of 70% or more and less than 90%)
herbicidal effect, F (Digitaria ciliaris) (Digitaria ciliaris): 3 (Herbicidal ratio of 40% or more and less than 70%)
herbicidal effect, N (Amaranthus retroflexus) (Amaranthus retroflexus): 4 (Herbicidal ratio of 70% or more and less than 90%)
herbicidal effect, H (Echinochloa crus-galli var. crus-galli) [2]: 4 (Herbicidal ratio of 70% or more and less than 90%)
herbicidal effect, R (Veronica persica) (Veronica persica): 3 (Herbicidal ratio of 40% or more and less than 70%)
herbicidal effect, M (Abutilon theophrasti) (Abutilon theophrasti): 3 (Herbicidal ratio of 40% or more and less than 70%)
herbicidal effect, I (Avena fatua) (Avena fatua): 1 (Herbicidal ratio of 5% or more and less than 20%)
herbicidal effect, K (Lolium multiflorum Lam.) (Lolium multiflorum Lam.): 0 (Herbicidal ratio of 5% or less (almost no effect))
herbicidal effect, J (Alopecurus myosuroides) (Alopecurus myosuroides): 0 (Herbicidal ratio of 5% or less (almost no effect))
herbicidal effect, Q (Galium spurium) (Galium spurium): 3 (Herbicidal ratio of 40% or more and less than 70%)
herbicidal effect, G (Setaria viridis) (Setaria viridis): 2 (Herbicidal ratio of 20% or more and less than 40%)
herbicidal effect, L (Apera spica-venti.) (Apera spica-venti.): 0 (Herbicidal ratio of 5% or less (almost no effect))
herbicidal effect, O (Chenopodium album) (Chenopodium album): 5 (Herbicidal ratio of 90% or more (almost completely withered))
effect on crop, f (Beta vulgaris ssp. vulgaris) [3]: 4 (Herbicidal ratio of 70% or more and less than 90%)
effect on crop, d (directly sowed Oryza sativa) [4]: 2 (Herbicidal ratio of 20% or more and less than 40%)
effect on crop, c (Glycine max) (Glycine max): 0 (Herbicidal ratio of 5% or less (almost no effect))
effect on crop, e (Triticum aestivum) (Triticum aestivum): 0 (Herbicidal ratio of 5% or less (almost no effect))
effect on crop, b (Zea mays) (Zea mays): 0 (Herbicidal ratio of 5% or less (almost no effect))
effect on crop, g (Brassica campestris L.) (Brassica campestris L.): 3 (Herbicidal ratio of 40% or more and less than 70%)

CN(CCC#N)c1nnc2c(C(=O)Nc3nnnn3C)ccc(C(F)(F)F)n12 [2-095]
B: Scirpus juncoides (herbicidal effect grade) (Scirpus juncoides): 5 (Herbicidal ratio of 90% or more (almost completely withered))
C: Monochoria vaginalis (herbicidal effect grade) (Monochoria vaginalis): 5 (Herbicidal ratio of 90% or more (almost completely withered))
A: Echinochloa oryzicola Vasing. (herbicidal effect grade) [1]: 5 (Herbicidal ratio of 90% or more (almost completely withered))
herbicidal effect, P (Stellaria media) (Stellaria media): 5 (Herbicidal ratio of 90% or more (almost completely withered))
herbicidal effect, F (Digitaria ciliaris) (Digitaria ciliaris): 5 (Herbicidal ratio of 90% or more (almost completely withered))
herbicidal effect, N (Amaranthus retroflexus) (Amaranthus retroflexus): 5 (Herbicidal ratio of 90% or more (almost completely withered))
herbicidal effect, H (Echinochloa crus-galli var. crus-galli) [2]: 5 (Herbicidal ratio of 90% or more (almost completely withered))
herbicidal effect, R (Veronica persica) (Veronica persica): 4 (Herbicidal ratio of 70% or more and less than 90%)
herbicidal effect, M (Abutilon theophrasti) (Abutilon theophrasti): 5 (Herbicidal ratio of 90% or more (almost completely withered))
herbicidal effect, I (Avena fatua) (Avena fatua): 4 (Herbicidal ratio of 70% or more and less than 90%)
herbicidal effect, K (Lolium multiflorum Lam.) (Lolium multiflorum Lam.): 3 (Herbicidal ratio of 40% or more and less than 70%)
herbicidal effect, J (Alopecurus myosuroides) (Alopecurus myosuroides): 4 (Herbicidal ratio of 70% or more and less than 90%)
herbicidal effect, Q (Galium spurium) (Galium spurium): 4 (Herbicidal ratio of 70% or more and less than 90%)
herbicidal effect, G (Setaria viridis) (Setaria viridis): 5 (Herbicidal ratio of 90% or more (almost completely withered))
herbicidal effect, L (Apera spica-venti.) (Apera spica-venti.): 5 (Herbicidal ratio of 90% or more (almost completely withered))
herbicidal effect, O (Chenopodium album) (Chenopodium album): 5 (Herbicidal ratio of 90% or more (almost completely withered))
effect on crop, f (Beta vulgaris ssp. vulgaris) [3]: 5 (Herbicidal ratio of 90% or more (almost completely withered))
effect on crop, d (directly sowed Oryza sativa) [4]: 5 (Herbicidal ratio of 90% or more (almost completely withered))
effect on crop, c (Glycine max) (Glycine max): 1 (Herbicidal ratio of 5% or more and less than 20%)
effect on crop, e (Triticum aestivum) (Triticum aestivum): 3 (Herbicidal ratio of 40% or more and less than 70%)
effect on crop, b (Zea mays) (Zea mays): 5 (Herbicidal ratio of 90% or more (almost completely withered))
effect on crop, g (Brassica campestris L.) (Brassica campestris L.): 5 (Herbicidal ratio of 90% or more (almost completely withered))

COC(=O)Cn1nnnc1NC(=O)c1ccc(C(F)(F)F)n2c(C(C)C)nnc12 [2-046]
B: Scirpus juncoides (herbicidal effect grade) (Scirpus juncoides): 0 (Herbicidal ratio of 5% or less (almost no effect))
C: Monochoria vaginalis (herbicidal effect grade) (Monochoria vaginalis): 0 (Herbicidal ratio of 5% or less (almost no effect))
A: Echinochloa oryzicola Vasing. (herbicidal effect grade) [1]: 4 (Herbicidal ratio of 70% or more and less than 90%)
P (Stellaria media) herbicidal effect grade (Stellaria media; foliage application): 2 (Herbicidal ratio of 20% or more and less than 40%)
F (Digitaria ciliaris) herbicidal effect grade (Digitaria ciliaris; foliage application): 0 (Herbicidal ratio of 5% or less (almost no effect))
N (Amaranthus retroflexus) herbicidal effect grade (Amaranthus retroflexus; foliage application): 4 (Herbicidal ratio of 70% or more and less than 90%)
H (Echinochloa crus-galli var. crus-galli) herbicidal effect grade ([2]; foliage application): 3 (Herbicidal ratio of 40% or more and less than 70%)
R (Veronica persica) herbicidal effect grade (Veronica persica; foliage application): 1 (Herbicidal ratio of 5% or more and less than 20%)
M (Abutilon theophrasti) herbicidal effect grade (Abutilon theophrasti; foliage application): 4 (Herbicidal ratio of 70% or more and less than 90%)
I (Avena fatua) herbicidal effect grade (Avena fatua; foliage application): 0 (Herbicidal ratio of 5% or less (almost no effect))
K (Lolium multiflorum Lam.) herbicidal effect grade (Lolium multiflorum Lam.; foliage application): 0 (Herbicidal ratio of 5% or less (almost no effect))
J (Alopecurus myosuroides) herbicidal effect grade (Alopecurus myosuroides; foliage application): 0 (Herbicidal ratio of 5% or less (almost no effect))
Q (Galium spurium) herbicidal effect grade (Galium spurium; foliage application): 1 (Herbicidal ratio of 5% or more and less than 20%)
G (Setaria viridis) herbicidal effect grade (Setaria viridis; foliage application): 1 (Herbicidal ratio of 5% or more and less than 20%)
L (Apera spica-venti.) herbicidal effect grade (Apera spica-venti.; foliage application): 0 (Herbicidal ratio of 5% or less (almost no effect))
O (Chenopodium album) herbicidal effect grade (Chenopodium album; foliage application): 4 (Herbicidal ratio of 70% or more and less than 90%)
f (Beta vulgaris ssp. vulgaris) effect on crop grade ([3]; foliage application): 2 (Herbicidal ratio of 20% or more and less than 40%)
d (directly sowed Oryza sativa) effect on crop grade ([4]; foliage application): 0 (Herbicidal ratio of 5% or less (almost no effect))
c (Glycine max) effect on crop grade (Glycine max; foliage application): 0 (Herbicidal ratio of 5% or less (almost no effect))
e (Triticum aestivum) effect on crop grade (Triticum aestivum; foliage application): 0 (Herbicidal ratio of 5% or less (almost no effect))
b (Zea mays) effect on crop grade (Zea mays; foliage application): 0 (Herbicidal ratio of 5% or less (almost no effect))
g (Brassica campestris L.) effect on crop grade (Brassica campestris L.; foliage application): 0 (Herbicidal ratio of 5% or less (almost no effect))
